Data on 13 molecules can be found in ChEMBL document CHEMBL1201862, “PubChem BioAssay data set” (2004).

Common to all, as to test: DTP human tumour cell line panel, 48 h
The test system of test [1] is NCI-H226.
The subject of test [2] is OVCAR-3.
Test [3] has as its system RXF 393.
Test [4] relates to KM12.
Test [5] concerns SF-539.
Test [6] deals with SF-268.
The test system of test [7] is HOP-62.
In test [8] the test system is OVCAR-5.
In test [9] the test system is CCRF-CEM.
Test [10] has as its system SK-MEL-28.
The subject of test [11] is 786-0.
Test [12] deals with U-251.
Test [13] deals with SW-620.
Test [14] deals with IGROV-1.
Test [15] has as its system EKVX.
The subject of test [16] is NCI-H23.
Test [17] has as its system SR.

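48-hour exposure; five concentrations; linearly interpolated endpoints. Here, GI50 denotes the concentration required for 50% inhibition of growth.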 Activity calls are given as the source filed them. Cut-off read from the data, not from the text of the source: active = GI50 up to about 1.1 µM and inactive = higher.

For the molecule `Cc1cccc(Cl)c1NC(=O)c1cccc([N+](=O)[O-])c1O`, the GI50 (in general, the concentration giving 50% growth inhibition) in test [1] was 22.2 µM (inactive); in [2], 27.5 µM (inactive); in test [3], 16.7 µM (inactive); in test [4] it was 21.3 µM (inactive); in [5], 26.8 µM (inactive); in test [6] it was 31.8 µM (inactive). The GI50 is 20.1 µM (inactive) in test [7]; 23.9 µM (inactive) in [8]; 73.5 µM (inactive) in test [9]; 41.5 µM (inactive) in test [10]; 56 µM (inactive) in test [11]; 33.7 µM (inactive) in test [12]. Further, the GI50 in test [13] was 59 µM (inactive); in [14], 34.5 µM (inactive); in [15], 39.6 µM (inactive); in test [16], 28.1 µM (inactive).

For the molecule `O=C(NCCNCCO)N/N=C/c1ccccc1`, the GI50 in [1], in test [2], in [3], in test [4], in test [5] and in test [6] was > 100 µM (inactive) in each case. Also, the GI50 in [9], in test [10], in test [11], in test [12], in test [13] and in test [14] was > 100 µM (inactive) each time. Further, the GI50 in [16] is > 100 µM (inactive).

For the molecule `Cc1c(O)c(O)cc[n+]1C1OC(CO)C(O)C1O` (configuration not stated), the GI50 in [1], in test [3], in test [4], in test [6], in test [8] and in test [9] was > 100 µM (inactive) in each case. Also, the GI50 in test [10], in [11], in test [12], in test [13], in [14] and in test [15] was > 100 µM (inactive) throughout. Moreover, the GI50 in test [16] was > 100 µM (inactive).

`CCC12C=CCN3CCC4(C(=C(C(=O)OC)C1)Nc1ccccc14)[C@H]32` (some centres not stated): the GI50 in [1] was 31.8 µM (inactive); in test [2] it was 30.8 µM (inactive); in test [3], 24.9 µM (inactive); in test [4], 25.8 µM (inactive); in test [5], 20.5 µM (inactive); in test [6], 19.5 µM (inactive). The GI50 in test [8] was 70.8 µM (inactive); in test [9], 22.2 µM (inactive); in [10] it was 41.7 µM (inactive); in test [11], 23.4 µM (inactive); in test [13], 26 µM (inactive); in test [14], 39.1 µM (inactive). Besides, the values for the GI50 in test [17], in test [15] and in test [16] were 0.0364 µM (active), 51.1 µM (inactive) and 28.4 µM (inactive), respectively.

Turning to `Nc1nc(N)c(-c2ccccc2)c(CCC(=O)Nc2ccc(Cl)cc2)n1`, the GI50 in [1], in [2], in test [4], in [5], in test [6] and in [7] was > 100 µM (inactive) throughout. The GI50 in [8], in [9], in test [10], in test [11], in test [12] and in test [13] was > 100 µM (inactive) each time. For the same molecule, the GI50 in [14], in test [17], in test [15] and in test [16] was > 100 µM (inactive) throughout.

`Cn1cc(NC(=O)c2cc(NC(=O)CCCCCCCCC(=O)Nc3cc(C(=O)Nc4cc(C(=O)NCCC(N)N)n(C)c4)n(C)c3)cn2C)cc1C(=O)NCCC(=N)N`: the GI50 is 25.8 µM (inactive) in [1]; 31 µM (inactive) in test [2]; 21.2 µM (inactive) in test [3]; 18.5 µM (inactive) in [4]; 22.6 µM (inactive) in test [5]; 20.5 µM (inactive) in test [6]. Also, the GI50 in [7] is 33 µM (inactive); in test [8], 21.4 µM (inactive); in test [9], 20.7 µM (inactive); in test [10], 12.1 µM (inactive); in test [11], 21.9 µM (inactive); in test [12] it was 17 µM (inactive). The GI50 in test [13] was 19.6 µM (inactive); in [14] it was 24.5 µM (inactive); in test [15] it was 20.3 µM (inactive); in [16] it was 33.9 µM (inactive).

Take `Cc1cccc(NC(=O)C(=O)C(C(=O)c2ccc3ccccc3c2)C2OC(=O)c3ccccc32)c1C` (configuration not stated): the GI50 in test [1] is 2.39 µM (inactive); in test [2] it was 12.9 µM (inactive); in test [3], 2.39 µM (inactive); in [4] it was 20.8 µM (inactive); in test [5], 6.53 µM (inactive); in test [6], 6.03 µM (inactive). Besides, the GI50 in test [7] was 10.7 µM (inactive); in test [8], 21.7 µM (inactive); in [9], 8.02 µM (inactive); in test [10], 5.2 µM (inactive); in [11], 6.15 µM (inactive); in test [12] it was 5.21 µM (inactive). The GI50 was 7.98 µM (inactive) in test [13], 17.5 µM (inactive) in test [14], 26.1 µM (inactive) in test [15] and 8.99 µM (inactive) in test [16].

`CCOc1ccc(NC2=NC(=O)C(CC(=O)Nc3ccccc3[N+](=O)[O-])S2)cc1` (configuration not stated): the GI50 in test [1], in test [2], in [3], in [5], in [6] and in test [8] was > 100 µM (inactive) throughout. The GI50 in [9], in [10], in [11], in test [12], in test [13] and in test [14] was > 100 µM (inactive) throughout. The GI50 in [17], in test [15] and in test [16] was > 100 µM (inactive) each time.

On to `CO[C@@]12CC(=O)/C(=C(O)\C=C\c3ccccc3)C(=O)[C@]1(OC)Cc1ccccc1O2`, for which the GI50 in [1] is 22.5 µM (inactive); in test [2], 26.2 µM (inactive); in [3], 18.8 µM (inactive); in test [4], 19.8 µM (inactive); in test [5], 24 µM (inactive); in [6] it was 27.7 µM (inactive). Besides, the GI50 in test [7] is 21.6 µM (inactive); in [8] it was 41.7 µM (inactive); in test [9], 22.4 µM (inactive); in [10] it was 22.4 µM (inactive); in [11], 24.7 µM (inactive); in test [12], 21.1 µM (inactive). The GI50 in test [13] was 31.3 µM (inactive); in test [14], 54 µM (inactive); in test [15], 38.5 µM (inactive); in test [16], 20.6 µM (inactive).

For `CCNC1C2(CCCCC2)NC(=O)C12CCCCC2` (configuration not stated), the GI50 in [1], in test [2], in [3], in test [4], in test [5] and in [7] was > 100 µM (inactive) throughout. In addition, the GI50 in test [8], in [9], in test [10], in test [11], in test [12] and in test [13] was > 100 µM (inactive) in each case. The GI50 in test [14], in [15] and in test [16] was > 100 µM (inactive) throughout.

Regarding `C/N=c1\ss/c(=N\C(=S)N(C)C)n1C`, the GI50 is 27.5 µM (inactive) in [1]; > 100 µM (inactive) in [3]; > 100 µM (inactive) in [4]; > 100 µM (inactive) in test [5]; > 100 µM (inactive) in test [6]; > 100 µM (inactive) in [7]. For the same molecule, the GI50 in [8], in test [9], in test [10], in test [11], in test [12] and in test [13] was > 100 µM (inactive) each time. Moreover, the GI50 in test [14], in test [17], in test [15] and in test [16] was > 100 µM (inactive) each time.

As for `COC1=CCC=C(C[C@@H]2NCCc3cc(OC)c(OC)cc32)C1`, the GI50 in [1] was 32.1 µM (inactive); in test [2], > 100 µM (inactive); in test [3], > 100 µM (inactive); in test [4] it was > 100 µM (inactive); in [5], > 100 µM (inactive); in test [6], > 100 µM (inactive). In addition, the GI50 in test [7], in [8], in [9], in test [10], in [11] and in test [12] was > 100 µM (inactive) in each case. Further, the GI50 in test [13], in test [14], in [15] and in [16] was > 100 µM (inactive) in each case.

Regarding `COC(=O)C1=C(C)N(NC(=O)c2cccc(Cl)c2)C(C)(O)C12CCOC2=O` (configuration not stated), the GI50 in test [1], in test [2], in [4], in test [5], in test [6] and in test [7] was > 100 µM (inactive) in each case. The GI50 in test [8], in [10], in test [11], in [12], in [13] and in test [14] was > 100 µM (inactive) throughout. For the same molecule, the GI50 in [17] was > 100 µM (inactive); in test [15], 58.7 µM (inactive).
